Experiment [1] deals with T1, CPTP (GLTPD1) (Homo sapiens, UniProt Q5TA50).
T1 sequence (Q5TA50 1-214): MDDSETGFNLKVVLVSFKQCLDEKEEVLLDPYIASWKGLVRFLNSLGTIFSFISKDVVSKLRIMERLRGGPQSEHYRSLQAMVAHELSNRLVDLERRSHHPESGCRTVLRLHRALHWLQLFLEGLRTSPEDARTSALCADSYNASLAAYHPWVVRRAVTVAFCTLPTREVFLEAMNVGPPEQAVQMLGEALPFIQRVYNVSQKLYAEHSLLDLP
Kind of experiment: FRET lipid transfer between POPC vesicles. As to conditions: 37 °C; labelled compound. It counts as biochemical.

Experiment [2] addresses T1, CPTP (GLTPD1). As to the kind of experiment: X-ray crystal structure. It counts as binding. As to conditions: sphingosine-in mode site as C1P.

Take `CCCCCCCCCCCCC/C=C/[C@@H](O)[C@H](COP(=O)(O)O)NC(=O)CCCCCCCCC/C=C/c1c2ccccc2cc2ccccc12` [AV-C1P, anthrylvinyl-C1P]: the transfer rate on CPTP (GLTPD1) [1] is on record as ~ 4 C1P molecules/min/protein.

Consider `CCCCCCCCCCCC(=O)OC[C@H](COP(=O)(O)O)OC(=O)CCCCCCCCCCC` [di12:0-PA], for which, on CPTP (GLTPD1) [2], the X-ray crystal structure result was “PA occupies the same binding site”.
